The values that follow come from patent publication US20260042764A1, “COMPOSITIONS AND METHODS FOR INHIBITION OF KRAS” (TheRas, Inc., priority 2022, published 2026).

Assay [1] addresses T1, Avi-KRAS G12R (1-169) GppNHp/RAF1 RBD-3xFLAG (52-151) (Homo sapiens, UniProt P01116, G12R).
T1 construct: Avi-KRAS G12R (1-169)
In words: Raf1-KRAS G12R-GppNHP disruption HTRF assay (Biological Example 1). The assay is classed as binding. A digest of the protocol:
(§1)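 Read-out is HTRF signal of the KRAS–RAF1 RBD complex, reported as percentage of activity relative to DMSO (100%). Protein mix and detection reagents each incubated 1 h at room temperature with 700 rpm shaking. Buffer: 50 mM Tris pH 7.5, 100 mM NaCl, 5 mM MgCl2, 0.1% BSA, 0.01% Tween, 10% DMSO.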

The subject of the next assay is SW620 cells (KRAS G12V). In words: Cell-based pERK HTRF assay in SW620 cell (Biological Example 4). The settings on record: Homo sapiens, SW-620, SW620 (KRAS G12V) cells, pERK HTRF. The method, then: A pERK assay (Perkin Elmer) was used to determine the effectiveness of compounds in disrupting KRAS G12V protein/effector signaling in cells.
On Day 1, cells (SW620) were seeded into 96-well plates at 3×10^4 cells/well in 80 μL complete growth media (RPMI, 10% FBS).
On Day 2, cells were treated with compounds at 0.25% DMSO. The source plate was created with compounds diluted in media at 5-fold the final assay concentration. The compounds were run in a 9-point concentration curve starting at 1 μM, with a half-log dilution between concentrations. Twenty μL was transferred onto the cell plates (final volume in wells was 100 μL). Plates were harvested after 4 h incubation by aspirating media and adding kit-supplied 1x supplemented lysis buffer to all wells (50 μL per well). Plates were then placed on a plate shaker and incubated at 850 rpm for an additional 30 min.
Antibody mixture solution was prepared by diluting aliquoted d2 and Eu Cryptate antibodies 1:20 in kit supplied detection buffer and mixing the diluted antibodies solutions (1:1 v:v).
Samples were homogenized by pipetting up and down and then transferred (16 μL of cell lysates) from the 96-well cell culture plate to two wells of the HTRF 384-well detection plate containing the antibody solution. Plates were centrifuged (524 g for Imin) and allowed to incubate between 4 and 24 h at room temperature. […] Plates were centrifuged again (524 g for 1 min), then analyzed on the En Vision plate reader using the following settings: Excitation 320 nm, Bandwidth 75 nm; Emission 615 nm, Bandwidth 85 nm; Gain 100%; Flashes 100; Lag 60 μs.
(In TR-FRET formats the signal depends on donor and acceptor labels being close together.)

Assay [2] addresses T2, Avi-KRAS G12V (1-169) GppNHp/RAF1 RBD-3xFLAG (52-151) (Homo sapiens, UniProt P01116, G12V).
T2 construct: Avi-KRAS G12V (1-169)
Kind of assay: Raf1-KRAS G12V-GppNHP disruption HTRF assay (Biological Example 1). It is filed as binding. In outline:
as §1

In another assay the test system is GP2d cells (KRAS G12D). In words: Cell-based pERK HTRF assay in GP2d cell (Biological Example 2). As to conditions: GP2d, GP2d (KRAS G12D) cells, pERK HTRF. In outline:
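Cells grown in DMEM with 10% FBS were exposed to compound for 60 min at 0.25% DMSO, using a 9-point half-log series starting at 1 μM or 100 nM. Lysates were then mixed with d2 and Eu cryptate antibodies for 4–24 h at room temperature, and pERK was read by HTRF.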

The target of assay [3] is T3, Avi-KRAS WT (1-169) GppNHp/RAF1 RBD-3xFLAG (52-151) (Homo sapiens, UniProt P01116).
T3 construct: Avi-KRAS WT (1-169)
In words: Raf1-KRAS WT-GppNHP disruption HTRF assay (Biological Example 1). It is filed as binding. In outline: as §1

Assay [4] has as its target T4, Avi-KRAS G12D (1-169) GppNHp/RAF1 RBD-3xFLAG (52-151) (Homo sapiens, UniProt P01116, G12D).
T4 construct: Avi-KRAS G12D (1-169)
In words: Raf1-KRAS G12D-GppNHP disruption HTRF assay (Biological Example 1). It is filed as binding. A digest of the protocol:
as §1

Each structure is given as a SMILES string.

T2 sequence (P01116 1-169 isoform P01116-2 G12V): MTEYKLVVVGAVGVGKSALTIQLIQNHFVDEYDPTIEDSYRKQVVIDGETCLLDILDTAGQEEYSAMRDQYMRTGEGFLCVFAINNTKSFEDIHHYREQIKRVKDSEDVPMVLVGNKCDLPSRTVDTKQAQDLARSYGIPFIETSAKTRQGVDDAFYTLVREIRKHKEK
T3 sequence (P01116 1-169 isoform P01116-2): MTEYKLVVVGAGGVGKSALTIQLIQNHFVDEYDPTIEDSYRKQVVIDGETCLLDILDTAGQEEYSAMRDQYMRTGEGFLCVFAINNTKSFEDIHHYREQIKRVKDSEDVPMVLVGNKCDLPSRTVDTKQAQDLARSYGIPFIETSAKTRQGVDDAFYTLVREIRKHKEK
T4 sequence (P01116 1-169 isoform P01116-2 G12D): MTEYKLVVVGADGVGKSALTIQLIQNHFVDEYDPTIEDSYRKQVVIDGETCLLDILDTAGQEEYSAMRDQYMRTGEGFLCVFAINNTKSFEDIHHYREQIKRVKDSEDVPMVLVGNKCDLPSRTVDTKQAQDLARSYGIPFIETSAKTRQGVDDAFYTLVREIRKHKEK
T1 sequence (P01116 1-169 isoform P01116-2 G12R): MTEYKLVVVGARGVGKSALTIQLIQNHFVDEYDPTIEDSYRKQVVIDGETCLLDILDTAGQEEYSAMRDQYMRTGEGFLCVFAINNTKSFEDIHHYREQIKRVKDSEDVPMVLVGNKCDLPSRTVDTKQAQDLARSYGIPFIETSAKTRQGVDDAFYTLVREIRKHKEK

For the compound `CCN(c1nc(OC[C@@]23CCCN2C[C@H](F)C3)nc2c(F)c(-c3ccc(F)c4sc(N)c(C#N)c34)c(C(F)(F)F)cc12)[C@@H]1C[C@H](C)N(C(=O)OC)C1` (atropisomer, axis not shown) [Compound 544], the IC50 in assay [1] (KRAS G12R-GppNHp/RAF1 RBD HTRF) was 100 to 1000 nM; with SW620 cells (KRAS G12V), under 100 nM; in assay [2] (KRAS G12V-GppNHp/RAF1 RBD HTRF) it was 100 to 1000 nM; with GP2d cells (KRAS G12D), under 100 nM; in assay [3] (KRAS WT-GppNHp/RAF1 RBD HTRF), 100 to 1000 nM; in assay [4] (KRAS G12D-GppNHp/RAF1 RBD HTRF), 100 to 1000 nM.

Regarding `CCN(c1nc(OC[C@@]23CCCN2C[C@H](F)C3)nc2c(F)c(-c3ccc(F)c4sc(N)c(C#N)c34)c(C(F)(F)F)cc12)[C@@H]1C[C@H](C)N(C(=O)N(C)C)C1` (atropisomer, axis not shown) [Compound 545], the IC50 in assay [1] (KRAS G12R-GppNHp/RAF1 RBD HTRF) was 1000 to 10000 nM; in the assay on SW620 cells (KRAS G12V) it was under 100 nM; in assay [2] (KRAS G12V-GppNHp/RAF1 RBD HTRF) it was 1000 to 10000 nM; in the assay with GP2d cells (KRAS G12D), under 100 nM; in assay [3] (KRAS WT-GppNHp/RAF1 RBD HTRF), 100 to 1000 nM; in assay [4] (KRAS G12D-GppNHp/RAF1 RBD HTRF), 100 to 1000 nM.

As to `CCN(c1nc(OC[C@@]23CCCN2C[C@H](F)C3)nc2c(F)c(-c3ccc(F)c4sc(N)c(C#N)c34)c(C(F)(F)F)cc12)[C@H]1CCN(C(=O)CC#N)C1` (atropisomer, axis not shown) [Compound 546], the IC50 (in assay [1] (KRAS G12R-GppNHp/RAF1 RBD HTRF); in the assay on SW620 cells (KRAS G12V); in assay [2] (KRAS G12V-GppNHp/RAF1 RBD HTRF); with GP2d cells (KRAS G12D); in assay [3] (KRAS WT-GppNHp/RAF1 RBD HTRF); in assay [4] (KRAS G12D-GppNHp/RAF1 RBD HTRF)) was under 100 nM throughout.

For the compound `CCN(c1nc(OC[C@@]23CCCN2C[C@H](F)C3)nc2c(F)c(-c3ccc(F)c4sc(N)c(C#N)c34)c(C(F)(F)F)cc12)[C@H]1CCN(C(=O)C(F)F)C1` (atropisomer, axis not shown) [Compound 547], the IC50 (in assay [1] (KRAS G12R-GppNHp/RAF1 RBD HTRF); with SW620 cells (KRAS G12V); in assay [2] (KRAS G12V-GppNHp/RAF1 RBD HTRF); in the assay on GP2d cells (KRAS G12D); in assay [3] (KRAS WT-GppNHp/RAF1 RBD HTRF); in assay [4] (KRAS G12D-GppNHp/RAF1 RBD HTRF)) was under 100 nM each time.

On to `CCN(c1nc(OC[C@@]23CCCN2C[C@H](F)C3)nc2c(F)c(-c3ccc(F)c4sc(N)c(C#N)c34)c(C(F)(F)F)cc12)[C@H]1CCN(C(=O)C2CC(F)(F)C2)C1` (atropisomer, axis not shown) [Compound 550], for which the IC50 in assay [1] (KRAS G12R-GppNHp/RAF1 RBD HTRF) is under 100 nM; with SW620 cells (KRAS G12V), under 100 nM; in assay [2] (KRAS G12V-GppNHp/RAF1 RBD HTRF), 100 to 1000 nM; with GP2d cells (KRAS G12D) it was under 100 nM; in assay [3] (KRAS WT-GppNHp/RAF1 RBD HTRF), under 100 nM; in assay [4] (KRAS G12D-GppNHp/RAF1 RBD HTRF), under 100 nM.

Regarding `CCN(c1nc(OC[C@@]23CCCN2C[C@H](F)C3)nc2c(F)c(-c3ccc(F)c4sc(N)c(C#N)c34)c(C(F)(F)F)cc12)[C@H]1CCN(C(=O)C2CCC2)C1` (atropisomer, axis not shown) [Compound 551], the IC50 (in assay [1] (KRAS G12R-GppNHp/RAF1 RBD HTRF); in the assay on SW620 cells (KRAS G12V); in assay [2] (KRAS G12V-GppNHp/RAF1 RBD HTRF); in the assay on GP2d cells (KRAS G12D); in assay [3] (KRAS WT-GppNHp/RAF1 RBD HTRF); in assay [4] (KRAS G12D-GppNHp/RAF1 RBD HTRF)) was under 100 nM each time.

As for `CN(c1nc(OC[C@@]23CCCN2C[C@H](F)C3)nc2c(F)c(-c3ccc(F)c4sc(N)c(C#N)c34)c(C(F)(F)F)cc12)C1CC(F)C1` (stereo partly shown) [Compound 161], the IC50 in assay [1] (KRAS G12R, GppNHp-loaded, Table 11) is 100 to 1000 nM; in the assay on SW620 cells (KRAS G12V), under 100 nM; in assay [2] (KRAS G12V, GppNHp-loaded, Table 11), 100 to 1000 nM; in assay [3] (KRAS WT, GppNHp-loaded, Table 11) it was 100 to 1000 nM; in assay [4] (KRAS G12D, GppNHp-loaded, Table 11), 100 to 1000 nM.

`CCN(c1nc(OC[C@@]23CCCN2C[C@H](F)C3)nc2c(F)c(-c3ccc(F)c4sc(N)c(C#N)c34)c(C(F)(F)F)cc12)[C@@H]1CCN(C(C)=O)[C@@H]1C` [Compound 407]: the IC50 in assay [1] (KRAS G12R-GppNHp/RAF1 RBD HTRF) is 100 to 1000 nM; in the assay with SW620 cells (KRAS G12V), under 100 nM; in assay [2] (KRAS G12V-GppNHp/RAF1 RBD HTRF), 100 to 1000 nM; in assay [3] (KRAS WT-GppNHp/RAF1 RBD HTRF), 100 to 1000 nM; in assay [4] (KRAS G12D-GppNHp/RAF1 RBD HTRF), 100 to 1000 nM.

What is called IC50 is the concentration at which inhibition is half-maximal. A high value points to lower potency.
